In brackets after ≈: the same amount, converted by molar mass. Where two headings read alike, the source gives them in different places.
Columns and labels:
[1] = Aqueous solubility in Ringer's buffer at pH 7.5 (HPLC); format: physicochemical
Procedure: A known excess weight of the compound was shaken overnight with a known volume of Ringer's buffer (bicarbonate buffer containing sodium, potassium, calcium and magnesium ions, initially adjusted to pH 7.5). The contents were filtered, and the clear filtrate was analyzed after appropriate dilution using HPLC (UV absorbance detection).

C. difficile = assay: In vitro antibacterial activity, agar dilution MIC; format: cell-based; conditions: Clostridioides difficile
K. pneumoniae = assay: In vitro antibacterial activity, agar dilution MIC; format: cell-based, Klebsiella pneumoniae
P. aeruginosa = assay: In vitro antibacterial activity, agar dilution MIC; format: cell-based; conditions: Pseudomonas aeruginosa, 18 h
H. influenza = assay: In vitro antibacterial activity, agar dilution MIC; format: cell-based; conditions: 18 h
Procedure: (§1) The in vitro antibacterial activity of the test compound was determined by conventional agar dilution procedures. The organisms were grown overnight in brain-heart infusion (BHI) broth (Difco 0037-01-6) at 36° C. Twofold dilutions of the stock solution ([…]) of the test compound were made in BHI agar obtain a test concentration ranging from […]. The plate was inoculated with approximately 10^4 organisms. It was then incubated at 36° C. for 18 h. the minimal inhibitory concentration was the lowest concentration of the test compound that yielded no visible growth on the plate.

E. coli = assay: In vitro antibacterial activity, agar dilution MIC; format: cell-based; conditions: Escherichia coli
Procedure: as §1

L. bozemanni = assay: In vitro antibacterial activity, agar dilution MIC; format: cell-based; conditions: 18 h; L. bozemanni ATCC 33217
Procedure: as §1

S. aureus = assay: In vitro antibacterial activity, agar dilution MIC; format: cell-based; conditions: Staphylococcus aureus
Procedure: as §1

[2] = Oral pharmacokinetics, blood level by disk agar diffusion bioassay; format: in vivo, Mice; conditions: for Blood Level of Compound: oral 100 mg/kg; for serum concentrations / blood levels (in words): versus analogs A and B at 100 mg/kg
Procedure: Mice were administered the quantity of compound indicated orally, as a single dose. At the specified time intervals, blood was collected from groups of five mice. All samples were assayed by a disk agar diffusion bioassay procedure. Bacillus subtilis 6633 or Klebsiella pneumoniae 10032 were used as the assay organisms, and seek agar medium No. 1 (BBL Microbiology Systems; Cockeysville, MD) was the growth medium. The plates were incubated at 32° C for 18 h and read with an image analyzer (Optomax Inc.).

S. agalactiae = assay: In vitro antibacterial activity, agar dilution MIC; format: cell-based; conditions: Streptococcus agalactiae, 18 h; S. agalactiae CMX 508 (Table 1)
N. gonorrhoeae = assay: In vitro antibacterial activity, agar dilution MIC; format: cell-based; conditions: Neisseria gonorrhoeae, 18 h
B. fragilis = assay: In vitro antibacterial activity, agar dilution MIC; format: cell-based; conditions: Bacteroides fragilis
L. pneumophila = assay: microbe, parasite or virus in culture; format: cell-based; conditions: Legionella pneumophila
E. faecalis = assay: In vitro antibacterial activity, agar dilution MIC; format: cell-based; conditions: Enterococcus faecalis, 18 h
P. mirabilis = assay: In vitro antibacterial activity, agar dilution MIC; format: cell-based; conditions: Proteus mirabilis, 18 h
S. pyogenes = assay: In vitro antibacterial activity, agar dilution MIC; format: cell-based; conditions: Streptococcus pyogenes, 18 h, S. pyogenes M79061-98
[3] = ATCC9689, 18 h, C. difficile ATCC 9689
[4] = ATCC17857, 18 h, C. difficile ATCC 17857
[5] = Klebsiella pneumoniae, 18 h, K. pneumoniae CMX 724A, read-out: MIC
[6] = H. influenza 588A, read-out: MIC
[7] = ATCC25922, 18 h, E. coli ATCC 25922
[8] = ATCC25923, 18 h, S. aureus ATCC 25923
[9] = compared with 2-unsubstituted aminopyrrolidine analogs

CC1CC(N)CN1c1nc2c(cc1F)c(=O)c(C(=O)O)cn2-c1ccc(F)cc1F (stereo not drawn) [Epimer of Example 2]
solubility ([1]; at pH 7.5 in Ringer's buffer): 340 µg/mL (≈ 813 µM)

CC1CC(N)CN1c1cc2c(cc1F)c(=O)c(C(=O)O)cn2-c1ccc(F)cc1F (stereo not drawn) [Epimer of Example 6]
solubility ([1]; at pH 7.5 in Ringer's buffer): 182 µg/mL (≈ 436 µM)

NC1CCN(c2nc3c(cc2F)c(=O)c(C(=O)O)cn3-c2ccc(F)cc2F)C1 (stereo not drawn) [Example A, 7-(3-Amino-pyrrolidin-1-yl)-1-(2,4-difluorophenyl)-1,4-dihydro-6-fluoro--oxo-1,8-naphthyridine-3-carboxylic acid, reference compound]
MIC (C. difficile; [3]): 1.6 µg/mL (≈ 3.96 µM)
MIC (C. difficile; [4]): 0.8 µg/mL (≈ 1.98 µM)
MIC (K. pneumoniae; K. pneumoniae CMX 735A): 0.06 MCG/ML
MIC (K. pneumoniae; [5]): 0.06 µg/mL (≈ 0.148 µM)
MIC (P. aeruginosa; P. aeruginosa A 5005): 0.5 µg/mL (≈ 1.24 µM)
MIC (P. aeruginosa; P. aeruginosa CFS 350F): 0.5 µg/mL (≈ 1.24 µM)
MIC (P. aeruginosa; P. aeruginosa CFS 387C): 1 µg/mL (≈ 2.47 µM)
MIC (P. aeruginosa; P. aeruginosa CMX 719A): 2 µg/mL (≈ 4.95 µM)
MIC (H. influenza; H. influenza 504): 0.15 µg/mL (≈ 0.371 µM)
MIC (H. influenza; H. influenza 519A): 0.15 µg/mL (≈ 0.371 µM)
MIC (H. influenza; H. influenza 566A): 0.15 µg/mL (≈ 0.371 µM)
MIC (H. influenza; [6]): 0.008 µg/mL (≈ 0.0198 µM)
MIC (E. coli; 18 h, E. coli CMX 733): 0.03 µg/mL (≈ 0.0742 µM)
MIC (E. coli; 18 h, E. coli CMX 744A): 0.03 µg/mL (≈ 0.0742 µM)
MIC (E. coli; 18 h, E. coli CMX 756): 0.03 µg/mL (≈ 0.0742 µM)
MIC (E. coli; [7]): 0.03 µg/mL (≈ 0.0742 µM)
MIC (L. bozemanni): 0.5 µg/mL (≈ 1.24 µM)
MIC (S. aureus; 18 h, S. aureus CMX 705): 0.03 µg/mL (≈ 0.0742 µM)
MIC (S. aureus; 18 h, S. aureus CMX 730A): 0.03 µg/mL (≈ 0.0742 µM)
MIC (S. aureus; 18 h, S. aureus GYR 1162): 0.03 µg/mL (≈ 0.0742 µM)
MIC (S. aureus; [8]): 0.03 µg/mL (≈ 0.0742 µM)
Blood Level of Compound ([2]; mice, t = 1.0 h): 2300 ng/mL
Blood Level of Compound ([2]; mice, t = 2.0 h): 1700 ng/mL
Blood Level of Compound ([2]; mice, t = 3.0 h): 1700 ng/mL
Blood Level of Compound ([2]; mice, t = 6.0 h): 900 ng/mL
MIC (S. agalactiae): 0.12 µg/mL (≈ 0.297 µM)
MIC (N. gonorrhoeae; N. gonorrhoeae 35F AMPI): 0.004 µg/mL (≈ 0.00989 µM)
MIC (N. gonorrhoeae; N. gonorrhoeae CMX 591): 0.06 µg/mL (≈ 0.148 µM)
MIC (B. fragilis; 18 h, B. fragilis AT25285): 0.4 µg/mL (≈ 0.989 µM)
MIC (B. fragilis; UC2, 18 h, B. fragilis UC-2): 0.8 µg/mL (≈ 1.98 µM)
MIC (L. pneumophila; 18 h): 0.25 µg/mL (≈ 0.618 µM)
MIC (L. pneumophila; ATCC33152, 18 h): 0.25 µg/mL (≈ 0.618 µM)
solubility ([1]; at pH 7.5 in Ringer's buffer): 8 µg/mL (≈ 19.8 µM)
MIC (E. faecalis; E. faecalis CMX 729G): 0.25 µg/mL (≈ 0.618 µM)
MIC (E. faecalis; E. faecalis GYR 1166): 0.5 µg/mL (≈ 1.24 µM)
MIC (P. mirabilis; P. mirabilis CMX 704F): 0.25 µg/mL (≈ 0.618 µM)
MIC (P. mirabilis; P. mirabilis CMX 729B): 0.12 µg/mL (≈ 0.297 µM)
MIC (S. pyogenes): 0.25 µg/mL (≈ 0.618 µM)

C[C@H]1C[C@H](N)CN1c1nc2c(cc1F)c(=O)c(C(=O)O)cn2-c1ccc(F)cc1F [Example 2, (2'S,4'S)-7-(4'-Amino-2'-methylpyrrolidin-1'-yl)-1-(o,p-difluorophenyl)-1,4-dihydro-6-fluoro-4-oxo-1,8-naphthyridine-3-Carboxylic Acid]
MIC (C. difficile; [3]): 1 µg/mL (≈ 2.39 µM)
MIC (C. difficile; [4]): 1 µg/mL (≈ 2.39 µM)
MIC (K. pneumoniae; K. pneumoniae CMX 735A): 0.06 MCG/ML
MIC (K. pneumoniae; [5]): 0.06 µg/mL (≈ 0.143 µM)
MIC (P. aeruginosa; P. aeruginosa A 5005): 0.5 µg/mL (≈ 1.2 µM)
MIC (P. aeruginosa; P. aeruginosa CFS 350F): 0.5 µg/mL (≈ 1.2 µM)
MIC (P. aeruginosa; P. aeruginosa CFS 387C): 0.5 µg/mL (≈ 1.2 µM)
MIC (P. aeruginosa; P. aeruginosa CMX 719A): 2 µg/mL (≈ 4.78 µM)
MIC (H. influenza; H. influenza 504): 0.008 µg/mL (≈ 0.0191 µM)
MIC (H. influenza; H. influenza 519A): 0.008 µg/mL (≈ 0.0191 µM)
MIC (H. influenza; H. influenza 566A): 0.008 µg/mL (≈ 0.0191 µM)
MIC (H. influenza; [6]): 0.008 µg/mL (≈ 0.0191 µM)
MIC (E. coli; 18 h, E. coli CMX 733): 0.03 µg/mL (≈ 0.0717 µM)
MIC (E. coli; 18 h, E. coli CMX 744A): 0.03 µg/mL (≈ 0.0717 µM)
MIC (E. coli; 18 h, E. coli CMX 756): 0.03 µg/mL (≈ 0.0717 µM)
MIC (E. coli; [7]): 0.03 µg/mL (≈ 0.0717 µM)
MIC (L. bozemanni): 0.25 µg/mL (≈ 0.598 µM)
MIC (S. aureus; 18 h, S. aureus CMX 705): 0.03 µg/mL (≈ 0.0717 µM)
MIC (S. aureus; 18 h, S. aureus CMX 730A): 0.03 µg/mL (≈ 0.0717 µM)
MIC (S. aureus; 18 h, S. aureus GYR 1162): 0.03 µg/mL (≈ 0.0717 µM)
MIC (S. aureus; [8]): 0.06 µg/mL (≈ 0.143 µM)
oral absorption properties (in words) [2, 9]: greatly improved oral absorption properties
concentration at 0.5 h ([2]; mouse, blood, mice, oral 25 mg/kg, t = 0.5 h, read-out: Blood Level of Compound): 5900 ng/mL
concentration at 1 h ([2]; mouse, blood, mice, oral 25 mg/kg, t = 1.0 h, read-out: Blood Level of Compound): 3200 ng/mL
concentration at 2 h ([2]; mouse, blood, mice, oral 25 mg/kg, t = 2.0 h, read-out: Blood Level of Compound): 3300 ng/mL
concentration at 3 h ([2]; mouse, blood, mice, oral 25 mg/kg, t = 3.0 h, read-out: Blood Level of Compound): 2800 ng/mL
concentration at 6 h ([2]; mouse, blood, mice, oral 25 mg/kg, t = 6.0 h, read-out: Blood Level of Compound): 1300 ng/mL
concentration at 24 h ([2]; mouse, blood, mice, oral 25 mg/kg, t = 24.0 h, read-out: Blood Level of Compound): 200 ng/mL
serum concentrations / blood levels (in words) ([2]; oral 25 mg/kg): still achieve better blood
serum concentrations / blood levels (in words) ([2]; oral 25 mg/kg, listed as Compound 2): higher serum concentrations
MIC (S. agalactiae): 0.12 µg/mL (≈ 0.287 µM)
MIC (N. gonorrhoeae; N. gonorrhoeae 35F AMPI): 0.004 µg/mL (≈ 0.00956 µM)
MIC (N. gonorrhoeae; N. gonorrhoeae CMX 591): 0.06 µg/mL (≈ 0.143 µM)
MIC (B. fragilis; 18 h, B. fragilis AT25285): 0.5 µg/mL (≈ 1.2 µM)
MIC (B. fragilis; UC2, 18 h, B. fragilis UC-2): 0.5 µg/mL (≈ 1.2 µM)
MIC (L. pneumophila; 18 h): 0.25 µg/mL (≈ 0.598 µM)
MIC (L. pneumophila; ATCC33152, 18 h): 0.25 µg/mL (≈ 0.598 µM)
AQUEOUS SOLUBILITY ([1]; at pH 7.5 in Ringer's buffer): 0.15 mg/mL
solubility properties (in words) [1, 9]: significantly improved aqueous solubility properties
MIC (E. faecalis; E. faecalis CMX 729G): 0.25 µg/mL (≈ 0.598 µM)
MIC (E. faecalis; E. faecalis GYR 1166): 0.5 µg/mL (≈ 1.2 µM)
MIC (P. mirabilis; P. mirabilis CMX 704F): 0.25 µg/mL (≈ 0.598 µM)
MIC (P. mirabilis; P. mirabilis CMX 729B): 0.25 µg/mL (≈ 0.598 µM)
MIC (S. pyogenes): 0.25 µg/mL (≈ 0.598 µM)

Reference: US4962112A, “7-(2-methyl-4-aminopyrrolidinyl)naphthryidine and quinoline compounds” (Abbott Laboratories, priority 1988, dated 1990)
